Test results as given in paper PMC4546510 (ACS chemical biology, 2015).
Like-named read-outs stand apart in the source and are kept apart here.

Columns and labels:
[1] = Cell viability assay; type: cell-based; conditions: human
[2] = tested on: HCVsg 1b(con1)-Rluc replicon; assay: microbe, parasite or virus in culture; type: cell-based, hepatitis C virus genotype 1b (con1); conditions: read-out: EC50 (concentration needed to reduce cellular HCVsg 1b(con1)-Rluc replicon content by 50%)
[3] = tested on: HCVsg 1b(con1)-Rluc replicon; type: cell-based, hepatitis C virus genotype 1b; conditions: combined with HPI; for Volume under the synergy plot (difference from Bliss additivity): MacSynergy II, 95% confidence; for Interaction with HPI (deviation from additive effects): Prichard & Shipman definitions
[4] = tested on: HCVsg 1b(con1)-Rluc replicon; type: cell-based, hepatitis C virus genotype 1b
[5] = target: full-length NS3 (helicase) (Hepatitis C virus genotype 1a, UniProt P26664); type: biochemical
[6] = tested on: scNS4A-NS3 H528A; assay: NS3 depsipeptide cleavage; type: biochemical, hepatitis C virus genotype 1a
[7] = target: recombinant full-length NS3 not fused to NS4A (Hepatitis C virus genotype 1a, UniProt P26664); assay: NS3 depsipeptide cleavage; type: biochemical; conditions: in the presence and absence of NS4A
[8] = tested on: HCVsg 2a(JFH1) replicon; assay: HCVsg 2a; type: cell-based, hepatitis C virus genotype 2a (JFH1); conditions: Renilla luciferase reporter
[9] = tested on: scNS4A-NS3 V524A; assay: NS3 depsipeptide cleavage; type: biochemical, hepatitis C virus genotype 1a; conditions: Val524 mutation
[10] = tested on: scNS4A-NS3 Q526A; assay: NS3 depsipeptide cleavage; type: biochemical, hepatitis C virus genotype 1a
[11] = tested on: HCVsg 1b(con1) replicon harboring R155K; conditions: 3 days
[12] = tested on: HCVsg 1b(con1) replicon harboring the R155K and V36A mutations; conditions: 3 days
[13] = tested on: BHK DENV-Rluc cell viability
[14] = tested on: subgenomic dengue virus replicon (DENVsg 2); assay: Dengue virus subgenomic replicon assay in BHK-21 cells; type: cell-based, dengue virus strain 2; conditions: Renilla luciferase-tagged replicon
[15] = tested on: Huh7.5 cell viability; assay: Cell viability assay; type: cell-based
[16] = tested on: HCVsg 2a(JFH1) replicon; assay: Colony formation assay, Huh7.5 cells with HCVsg 2a; type: cell-based, hepatitis C virus genotype 2a; conditions: genotype 2a replicon, G418 selection
[17] = Hepatitis C virus, Huh7.5, 72 h

C=C[C@@H]1C[C@]1(NC(=O)[C@@H]1C[C@@H]2CN1C(=O)[C@H](C(C)(C)C)NC(=O)O[C@@H]1C[C@H]1CCCCCc1nc3ccc(OC)cc3nc1O2)C(=O)NS(=O)(=O)C1CC1 [Grazoprevir]
CC50 ([1]; replicon-bearing Huh7.5 cells): 54 ± 5 µM | EC50 [2, 17]: 0.00076 ± 0.00013 µM | Volume under the synergy plot (difference from Bliss additivity) [3]: 101 μM^2%

CCC[C@H](NC(=O)[C@@H]1[C@H]2CCC[C@H]2CN1C(=O)[C@@H](NC(=O)[C@@H](NC(=O)c1cnccn1)C1CCCCC1)C(C)(C)C)C(=O)C(=O)NC1CC1 [Telaprevir]
Sensitivity of cells that were incubated with HPI ([4]; HPI-selected cells, data not shown): retained sensitivity | Resistance after incubation with the compound ([4]; incubated with telaprevir for 3 weeks): became resistant | Inhibition of NS3 in an MBHA [5]: do not inhibit | CC50 ([1]; replicon-bearing Huh7.5 cells): 45 ± 4 µM | EC50 [2, 17]: 0.81 ± 0.4 µM | Interaction with HPI (deviation from additive effects) [3]: no significant deviations from additive effects

CC(C)(C)OC(=O)N[C@H]1CCCCC/C=C\[C@@H]2C[C@@]2(C(=O)NS(=O)(=O)C2CC2)NC(=O)[C@@H]2C[C@@H](OC(=O)N3Cc4cccc(F)c4C3)CN2C1=O [Danoprevir]
Inhibition of NS3 in an MBHA ([5]; full-length NS3): do not inhibit | CC50 [1]: 100 µM | EC50 [2, 17]: 0.002 ± 0.0005 µM | Volume under the synergy plot (difference from Bliss additivity) [3]: 17 μM^2% | Interaction with HPI (deviation from additive effects) [3]: Minor, insignificant synergy

Cc1ccc2nc(-c3ccc4nc(-c5ccc(NC(=O)c6cc(C(F)(F)F)cc(C(F)(F)F)c6)cc5)sc4c3)sc2c1S(=O)(=O)O.N [HPI]
Effect of substitution on ability to inhibit the NS3 protease [6]: neither the Q526A nor H528A substitutions influenced | Amount needed to inhibit NS3-catalyzed peptide cleavage versus scNS4A-NS3 [7]: considerably more HPI was needed | Activity against the HCVsg 2a(JFH1) replicon [8]: little activity | Effect of mutation on ability to inhibit NS3-catalyzed peptide cleavage [9]: do not affect | Change in sensitivity of the cell line to the compound after selection ([4]; incubated with HPI twice as long as 3 weeks (6 weeks)): ≤ 2 fold | Sensitivity of cells that became resistant to telaprevir ([4]; telaprevir-selected cells, data not shown): retained sensitivity | Effect of substitution on ability to inhibit the NS3 protease [10]: neither the Q526A nor H528A substitutions influenced | Activity on telaprevir-resistant replicon versus HCVsg 1b(con1) replicon [11]: equally active | Inhibition of NS3 in an MBHA ([5]; full-length NS3): inhibits full-length NS3 in an MBHA | IC50 ([5]; read-out: IC50, molecular beacon-based helicase assay, NS3-catalyzed DNA unwinding, normalized initial velocities): 6 ± 2 µM | Activity on telaprevir-resistant replicon versus HCVsg 1b(con1) replicon [12]: equally active | Effect on cell viability, dengue replicon cells [13]: no effect on cell viability | Antiviral activity on subgenomic dengue virus replicon [14]: no antiviral activity | Effect on viability of cells containing HCVsg 1b(con1) or HCVsg 2a(JFH1) ([15]; concentrations up to 100 μM): did not affect the viability | CC50 ([15]; read-out: CC50 (concentration needed to reduce cell viability by 50%), Huh7.5 cells): > 100 µM | Antiviral activity in colony-formation assay [16]: some antiviral activity | EC50 ([2]; Huh7.5 cells, 72 hours, relative to DMSO): 15 ± 4 µM

CC(C)(C)NC(=O)N[C@H](C(=O)N1C[C@H]2[C@@H]([C@H]1C(=O)NC(CC1CCC1)C(=O)C(N)=O)C2(C)C)C(C)(C)C (some centres unmarked) [Boceprevir]
Inhibition of NS3 in an MBHA [5]: do not inhibit | CC50 ([1]; replicon-bearing Huh7.5 cells): > 100 µM | EC50 [2, 17]: 0.64 ± 0.1 µM | Interaction with HPI (deviation from additive effects) [3]: no significant deviations from additive effects
